This experiment deals with Alpha-galactosidase (Aspergillus niger). As to the kind of experiment: Compound tested for inhibition of alpha-galactosidase from Aspergillus niger.

Usually pKi stands for the negative decadic logarithm of the Ki, by convention in mol/L. A higher pKi goes with a small Ki.

pKi: −log10 of the molar value.

In the case of `C[C@@H](OC[C@H]1O[C@@H](O)[C@H](O)[C@H](O)[C@@H]1O)[C@H](N)C(=O)O` [2-(R)-Amino-3-(3,4,5,6-tetrahydroxy-tetrahydro-pyran-2-ylmethoxy)-butyric acid], the pKi was 3.52. In the case of `N[C@@H](COC[C@H]1O[C@@H](O)[C@H](O)[C@H](O)[C@@H]1O)C(=O)O` [2-Amino-3-(3,4,5,6-tetrahydroxy-tetrahydro-pyran-2-ylmethoxy)-propionic acid] it was 3.40.

The values above are taken from BindingDB's records for doi:10.1016/j.bmcl.2003.10.011 (University of Hamburg, 2003).
